Measured values: article PMC7527510, “Identification of the dog orthologue of human MAS-related G protein coupled receptor X2 (MRGPRX2) essential for drug-induced pseudo-allergic reactions” (Scientific Reports, 2020)
pEC50: −log10 of the molar value. “And” between values parts separate entries of the source, which are not always exact repeats. Equal values may be shown once. “Also recorded” adds a separate entry of the source. Read-outs that look alike come from different tables or passages of the source.

Assays:
[1] = biological target: T1, human MRGPRX2 (Homo sapiens, UniProt Q96LB1); assay: Intracellular Ca2+ mobilisation assay in HEK293 cells transiently transfected with human MRGPRX2; format: cell-based; settings: for Activation of human MRGPRX2 (increase in intracellular Ca2+): HEK293 cells transfected with human MRGPRX2, fluoroquinolones up to 1000 μg/mL; for EC50: human MRGPRX2-expressing HEK293 cells, mean ± SD of three independent experiments, read-out: EC50 on changes in intracellular Ca2+ levels, Human MRGPRX2 (converted)
T1 construct: expressed in transfected cells; host or cells: HEK293 (JCRB Cell Bank), transient, pcDNA3.1(+) vector
T1 sequence (Q96LB1 1-330): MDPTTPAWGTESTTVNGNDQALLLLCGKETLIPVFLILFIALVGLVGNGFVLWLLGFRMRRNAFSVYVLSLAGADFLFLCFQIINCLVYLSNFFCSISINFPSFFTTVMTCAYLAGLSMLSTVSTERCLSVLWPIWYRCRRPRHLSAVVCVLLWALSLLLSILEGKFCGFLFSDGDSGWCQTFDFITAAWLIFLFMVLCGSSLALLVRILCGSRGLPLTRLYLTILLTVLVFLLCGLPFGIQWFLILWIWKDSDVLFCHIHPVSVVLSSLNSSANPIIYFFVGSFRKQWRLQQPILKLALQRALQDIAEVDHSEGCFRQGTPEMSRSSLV
Experimental: (§1) HEK293 cells obtained from the JCRB Cell Bank (Osaka, Japan) were transfected transiently with dog MRGPRD, MRGPRF, MRGPRG, or MRGPRX2 or human MRGPRX2. Lipofectamine 2000 Reagent (Thermo Fisher Scientific Inc.) and pcDNA3.1(+) vector containing each gene were diluted and mixed using Opti-MEM I Reduced Serum Medium (Thermo Fisher Scientific Inc.) to prepare lipid-DNA complexes (final concentrations: lipofectamine 2.5 μL/mL and DNA 2,500 ng/mL). HEK293 cells were detached using TrypLE™ Express (Thermo Fisher Scientific Inc.) and prepared to 7 × 10^5 cells/mL with the lipid-DNA complex. Thereafter, 25 μL cells (1.75 × 10^4 cells/well) were seeded per well in 384-well flat-bottomed plates (Corning Incorporated, Corning, NY, USA) and incubated overnight at 37 °C under 5% CO2 conditions. Cells treated with plasmid-free lipid solution were used as negative control (non-transfected cells).
Test articles were dissolved in HBSS (pH 7.4, Thermo Fisher Scientific Inc., Waltham, MA, USA) supplemented with 20 mM HEPES (Sigma-Aldrich Co. LLC.) and 0.05 vol% bovine serum albumin (BSA, Sigma-Aldrich Co. LLC.). […] Intracellular Ca^2+ levels were analysed using Calcium Kit II-iCellux (Dojindo Molecular Technologies, Inc., Kumamoto, Japan), according to the manufacturer's instructions. HEK293 cells (1.75 × 10^4 cells/well) were loaded with 1.25 mM probenecid and calcium probe for 45 min at 25 °C. Changes in fluorescence intensities before and after addition of the test articles were measured over time using FLIPR Tetra (Molecular Devices, LLC., Sunnyvale, CA, USA) with excitation at 470–495 nm and emission at 515–575 nm. The test articles were added at 10 s after beginning the measurements. Samples were measured in duplicate or quadruplicate. The data were analysed using ScreenWorks (Molecular Devices, LLC. Version 3.2.0.14) to determine the difference between maximal and minimal fluorescence intensity (max–min).
(§2) Data represent the mean ± SD of three animals for distribution study or three independent assays for Ca^2+ mobilisation. EC50 of each test article used in the Ca^2+ mobilisation assay was calculated using the sigmoid Emax model. These analyses were performed by using the SAS System Release 8.2 software (SAS Institute Inc., Cary, NC, USA).

[2] = test system: non-transfected HEK293 cells; assay: Intracellular Ca2+ levels in non-transfected HEK293 cells (negative control cells); format: cell-based, human; settings: 1,000 μg/mL; data excluded from the analysis
Experimental: as §1, with “Thereafter, 25 μL cells (1.75 × 10^4 cells/well) were seeded per well in 384-well flat-bottomed plates (Corning Incorporated, Corning, NY, USA) and incubated overnight at 37 °C under 5% CO2 conditions. Cells treated with plasmid-free lipid solution were used as negative control (non-transfected cells).” left out
Test articles were dissolved in HBSS (pH 7.4, Thermo Fisher Scientific Inc., Waltham, MA, USA) supplemented with 20 mM HEPES (Sigma-Aldrich Co. LLC.) and 0.05 vol% bovine serum albumin (BSA, Sigma-Aldrich Co. LLC.). […] Intracellular Ca^2+ levels were analysed using Calcium Kit II-iCellux (Dojindo Molecular Technologies, Inc., Kumamoto, Japan), according to the manufacturer's instructions. […] Changes in fluorescence intensities before and after addition of the test articles were measured over time using FLIPR Tetra (Molecular Devices, LLC., Sunnyvale, CA, USA) with excitation at 470–495 nm and emission at 515–575 nm. […] Samples were measured in duplicate or quadruplicate. […]

[3] = biological target: dog MRGPRX2 (Canis lupus familiaris, UniProt A0A4Y5P885); assay: Intracellular Ca2+ mobilisation assay in HEK293 cells transiently transfected with dog MRGPRX2; format: cell-based; settings: for Difference in EC50 values between dog MRGPRX2 and human MRGPRX2: EC50 lower in dog MRGPRX2-expressing cells than in human MRGPRX2-expressing cells; for pEC50: EC50 on changes in intracellular Ca2+ levels, Dog MRGPRX2, dog MRGPRX2-expressing HEK293 cells; for Activation of dog MRGPRX2 (increase in intracellular Ca2+): HEK293 cells transfected with dog MRGPRX2, fluoroquinolones up to 1000 μg/mL
dog MRGPRX2, sequence (A0A4Y5P885 entry or part of it): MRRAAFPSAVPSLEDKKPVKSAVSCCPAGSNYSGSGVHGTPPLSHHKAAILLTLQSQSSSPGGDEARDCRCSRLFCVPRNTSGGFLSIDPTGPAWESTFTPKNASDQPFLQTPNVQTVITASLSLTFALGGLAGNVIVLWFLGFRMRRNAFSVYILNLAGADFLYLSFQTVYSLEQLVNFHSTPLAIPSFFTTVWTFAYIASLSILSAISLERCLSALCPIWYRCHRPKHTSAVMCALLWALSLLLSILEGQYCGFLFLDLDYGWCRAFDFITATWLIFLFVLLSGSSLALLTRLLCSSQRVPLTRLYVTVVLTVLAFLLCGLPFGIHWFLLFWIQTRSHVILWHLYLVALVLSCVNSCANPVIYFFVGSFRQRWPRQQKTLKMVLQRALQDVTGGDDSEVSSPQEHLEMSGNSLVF
Experimental: as §1
Test articles were dissolved in HBSS (pH 7.4, Thermo Fisher Scientific Inc., Waltham, MA, USA) supplemented with 20 mM HEPES (Sigma-Aldrich Co. LLC.) and 0.05 vol% bovine serum albumin (BSA, Sigma-Aldrich Co. LLC.). The highest concentration of the fluoroquinolones was set at 1000 μg/mL based on previous reports at which the test substances induced marked intracellular Ca^2+ mobilisation in human MRGPRX2-expressing HEK293 cells[11] or caused histamine release in rat or human mast cells[16],[25],[36]. Intracellular Ca^2+ levels were analysed using Calcium Kit II-iCellux (Dojindo Molecular Technologies, Inc., Kumamoto, Japan), according to the manufacturer's instructions. HEK293 cells (1.75 × 10^4 cells/well) were loaded with 1.25 mM probenecid and calcium probe for 45 min at 25 °C. Changes in fluorescence intensities before and after addition of the test articles were measured over time using FLIPR Tetra (Molecular Devices, LLC., Sunnyvale, CA, USA) with excitation at 470–495 nm and emission at 515–575 nm. The test articles were added at 10 s after beginning the measurements. Samples were measured in duplicate or quadruplicate. The data were analysed using ScreenWorks (Molecular Devices, LLC. Version 3.2.0.14) to determine the difference between maximal and minimal fluorescence intensity (max–min).
as §2

[4] = test system: mouse Mrgprb2; parameters: method as in PMID 25517090; settings: cited from earlier work
[5] = parameters: method as in PMID 9635500; settings: cited from earlier work
[6] = test system: dispersed canine skin mast cells; parameters: method as in PMID 10864147; settings: cited from earlier work
[7] = mean ± SD of three independent experiments

EC50 ([3]; dog MRGPRX2-expressing HEK293 cells, mean ± SD of three independent experiments, read-out: EC50 on changes in intracellular Ca2+ levels, Dog MRGPRX2 (converted)) | Compound | Activation of human MRGPRX2 (increase in intracellular Ca2+) [1] | Nonspecific increase in intracellular Ca2+ levels in non-transfected cells [2] | Difference in EC50 values between dog MRGPRX2 and human MRGPRX2 [3] | pEC50 [3, 7] | Activation of dog MRGPRX2 (increase in intracellular Ca2+) [3] | EC50 in mouse Mrgprb2-expressing cells compared to human MRGPRX2-expressing cells ([4]; higher in mouse) | pEC50 ([4]; read-out: EC50 in mouse Mrgprb2-expressing cells) | Histamine release in dogs [5] | EC50 [1] | Concentration inducing histamine release from dispersed canine skin mast cells [6]
– | O=C(O)c1cn(C2CC2)c2cc(N3CCNCC3)c(F)cc2c1=O [CPFX, ciprofloxacin] | concentration-dependent | induced nonspecific increase | ca. sevenfold | ~4.34 and 4.36 | responded | – | – | – | – | –
– | substance P | – | – | – | – | – | 360 fold | 4.27 | – | – | –
– | C[C@H]1COc2c(C3(N)CC3)c(F)cc3c(=O)c(C(=O)O)cn1c23 [PZFX, pazufloxacin] | did not activate | – | – | – | did not activate | – | – | does not induce histamine release; also recorded: does not cause histamine release | – | –
– | C[C@H]1COc2c(N3CCN(C)CC3)c(F)cc3c(=O)c(C(=O)O)cn1c23 [LVFX, levofloxacin] | concentration-dependent | – | ca. sevenfold | ~3.78 and 3.79 | responded | – | – | – | 1060 µM | ≥ 30 µg/mL
210 µM | COc1c(N2CCNC(C)C2)c(F)cc2c(=O)c(C(=O)O)cn(C3CC3)c12 (centres unmarked) [GFLX, gatifloxacin] | concentration-dependent | – | – | – | responded | – | – | – | 529 µM | –
